The source of these data is patent publication US20100099693A1, “NEW COMBINATION FOR USE IN THE TREATMENT OF INFLAMMATORY DISORDERS” (priority 2007, published 2010).

Each structure is given as a SMILES string.

For test [1], the system named is Rat aortic smooth muscle cells (RASMC). The experiment in a line: Rat aortic smooth muscle cell proliferation assay (WST-1 reagent, 5% FBS stimulated). Type of test: cell-based. As to conditions: single drug, 48 hours, F-12/5% FBS; for inhibition at 0.1 µM: final concentration 0.1 μM; for inhibition at 0.1 µM / inhibition at 1 µM / inhibition at 10 µM: mean n=3; for inhibition at 1 µM: final concentration 1 μM; for inhibition at 10 µM: final concentration 10 μM. As for the experimental part:
Rat aortic smooth muscle cells (RASMC) were isolated as previously described (Hellin et al, Arterioscler. Thromb. Vasc. Biol., 17, 1977 (1997)). The cells were cultired (37° C./5% CO2) in Ham's medium F-12 supplemented with 10% fetal bovine serum (FBS), 50 μg/mL L-ascorbic acid, 50 μg/mL streptomycin and 50 IU/mL penicillin (F-12/10% FBS), grown to confluence, serially passaged by trypsinization, and used in experiments after 2-7 passages. The RASMC were seeded in 96-well plates at a density of approximately 5×10^3 cells per well in F-12/10% FBS (100 μl per well). After 72 hours, the cells were synchronized in G0/G1 phase by starvation in Ham's medium F-12 supplemented with 0.1% bovine serum albumin (BSA), 50 μg/mL L-ascorbic acid, 50 μg/mL streptomycin and 50 IU/mL penicillin (F-12/0.1% BSA) for 48 hours. After the starvation, the cells were 70-80% confluent. The experiment was then started by changing to F-12 medium containing 5% FBS, 50 μg/mL L-ascorbic acid, 50 μg/mL streptomycin and 50 IU/mL penicillin (F-12/5% FBS), without (positive control cells) or with the test drugs (drug treated cells) as described below. For comparison, some cells remained in F-12/0.1% BSA (negative control cells).
Proliferation of the RASMC cells was measured using the Cell Proliferation Reagent WST-1 (Roche Diagnostics Scandinavia AB, Bromma, Sweden). The WST-1 reagent is designed to be used for spectrophotometric quantification of e.g. cell growth in proliferation assays and was used according to the manufacturers' instructions. The wavelength for measuring absorbance was 450 nm and the absorbance of all untreated positive control cells exposed to the WST-1 reagent was between 1 and 2.7.
Stock solutions of ramatroban (sodium salt; see Example 19 above) and rosuvastatin (sodium salt; see Example 19 above) were made in sterile saline.
48 hours after start of the experiment as described above, the mean positive control RASMC proliferation (measured using the WST-1 reagent) was 225% of that of the negative control RASMC (n=12 in both groups). The effects of ramatroban and/or rosuvastatin (added to cells in F-12/5% FBS at the start of the experiment) on RASMC proliferation were studied 48 hours after start of the experiment.
The procedure described in Example 22 was repeated for atorvastatin (sodium salt; see Example 20 above).
The procedure described in Example 22 was repeated for simvastatin (sodium salt; see Example 21 above).

The subject of another test is MonoMac-6 (MM6) cells. Kind of test: MonoMac-6 macrophage proliferation assay (WST-1 reagent). Type of test: cell-based, human. As to conditions: single drug, 48 hours; for inhibition at 10 µM / inhibition at 30 µM / inhibition at 100 µM: Homo sapiens, MONO-MAC-6, WST-1, mean n=4; for inhibition at 10 µM: final concentration 10 μM; for inhibition at 30 µM: final concentration 30 μM; for inhibition at 100 µM: final concentration 100 μM. As for the experimental part: Cells from the human macrophage cell-line MonoMac-6 (MM6) (Ziegler-Heitbrock et al, Int. J. Cancer, 41, 456 (1988)) were cultured (37° C./5% CO2) in RPMI-1640 medium supplemented with 1 mM sodium pyruvate, 1× nonessential amino acids, 1-100 μg/mL insulin, 1 mM oxalacetic acid, 100 units/mL penicillin, 100 μg/mL streptomycin and 10% (v/v) fetal bovine serum. At the start of the experiment, MM6 cells were seeded in 96-well plates at a density of 1×10^5 cells/mL (100 μl per well). Proliferation of the MM6 cells was measured using the Cell Proliferation Reagent WST-1 (Roche Diagnostics Scandinavia AB, Bromma, Sweden) or by cell counting using a microscope. The WST-1 reagent is designed to be used for spectrophotometric quantification of e.g. cell growth in proliferation assays and was used according to the manufacturers' instructions. The wavelength for measuring absorbance was 450 nm and the absorbance of all untreated control cells exposed to the WST-1 reagent was between 1.0 and 2.5. Stock solutions of ramatroban (sodium salt; ramatroban was purchased from Cayman Chemical, Ann Arbor, Mich., USA as free acid and converted to sodium salt by adding one equivalent of aqueous NaOH) and rosuvastatin (sodium salt; rosuvastatin was extracted and purified from commercially available Crestor® tablets and isolated as sodium salt as described in Bioorganic & Medicinal Chemistry, Vol. 5, No. 5, pp 437-444, 1997) were made in sterile saline.
The effects of ramatroban and/or rosuvastatin (added at the start of the experiments) on MM6 cell proliferation were studied 48 hours after start of the experiments using the WST-1 reagent described above.
The procedure described in Example 19 was repeated for atorvastatin (sodium salt; received as atorvastatin calcium as a gift from Biocon, Ltd., Bangalore, India and converted into sodium salt by firstly converting the calcium salt into the free acid by addition of aqueous hydrochloric acid and then, after isolation via extraction, adding one equivalent of aqueous NaOH).
The procedure described in Example 19 was repeated for simvastatin (sodium salt; simvastatin was received as the lactone as a gift from Biocon, Ltd., Bangalore, India and isolated as the sodium salt following lactone ring opening via hydrolysis using one equivalent of NaOH in water and ethanol at 60° C.).
Background: Tetrazolium dyes change colour on reduction, which living cells bring about.

One may read the inhibition as the drop in the measured response relative to a control, in per cent. In test [1], `CC(C)c1c(C(=O)Nc2ccccc2)c(-c2ccccc2)c(-c2ccc(F)cc2)n1CC[C@@H](O)C[C@@H](O)CC(=O)O` [atorvastatin] had an inhibition at 0.1 µM of 27.4%, an inhibition at 1 µM of 0% and an inhibition at 10 µM of 18.9%. In the test on MonoMac-6 (MM6) cells, this compound yielded an inhibition at 10 µM of 16.8%, an inhibition at 30 µM of 27.8% and an inhibition at 100 µM of 71.7%.

As to `O=C(O)CCn1c2c(c3ccccc31)C[C@H](NS(=O)(=O)c1ccc(F)cc1)CC2` [ramatroban], the inhibition at 100 µM in test [1] (final concentration 100 μM, mean n=6) was found to be 11.9%; in the test with MonoMac-6 (MM6) cells it was 15.2%. Besides, the “effect on MM6 proliferation (in words)” value in the test with MonoMac-6 (MM6) cells (10 μM, data not shown) is “effect similar to that of 100 μM of ramatroban”.

As for `CC(C)c1nc(N(C)S(C)(=O)=O)nc(-c2ccc(F)cc2)c1/C=C/[C@@H](O)C[C@@H](O)CC(=O)O` [rosuvastatin], in test [1], the inhibition at 0.1 µM worked out at 5.3%, the inhibition at 1 µM was 0% and the inhibition at 10 µM turned out to be 21.7%. Also, in the test on MonoMac-6 (MM6) cells, the inhibition at 10 µM amounted to 11.5%, the inhibition at 30 µM turned out to be 31.2% and at 100 µM the inhibition was 70.1%.

In test [1], `CCC(C)(C)C(=O)O[C@H]1C[C@@H](C)C=C2C=C[C@H](C)[C@H](CC[C@@H]3C[C@@H](O)CC(=O)O3)[C@H]21` [simvastatin] came in with an inhibition at 0.1 µM of 23.8%, an inhibition at 1 µM of 0% and an inhibition at 10 µM of 74.3%. In the test on MonoMac-6 (MM6) cells, this compound showed an inhibition at 10 µM of 21.3%, an inhibition at 30 µM of 68.1% and an inhibition at 100 µM of 85%.
